Source: US4419123A, “Herbicidal 4-trifluoromethyl-3'-carbon-substituted-4'-substituted diphenyl ethers” (Rohm and Haas Company, priority 1981, dated 1983)

Tests used:
[1] = system: soybeans; test: Crop tolerance (selective herbicidal activity), soybeans; type: in vivo; settings: preemergence applications
Protocol: (§1) The following test procedure is employed.
(§2) Following the general test procedure of Example 37, diphenyl ethers are evaluated for significant tolerance (as shown by 50% or less kill of the test crop at levels of application which give more than 50% kill of many or all of the weeds of Example 73) towards some or all of the following common agronomic crops (not all compounds tested against all crops): alfalfa, snapbeans, corn, cotton, cucumbers, peanuts, rape, rice, safflower, soybeans, tomatoes, and wheat.

[2] = system: peanuts; test: Crop tolerance (selective herbicidal activity), peanuts; type: in vivo
Protocol: as §1, §2

[3] = Postemergence herbicidal activity (% control) against dicot weeds; settings: post-emergence, 336 h; for activity at 2241.7 g/ha: read-out: Herbicidal activity (% control), postemergence, dicots, 2 lb./A., average, about two weeks after application; for activity at 4483.4 g/ha: read-out: Herbicidal activity (% control), postemergence, dicots, 4 lb./A., average, about two weeks after application
[4] = Postemergence herbicidal activity (% control) against monocot weeds; type: in vivo; settings: post-emergence, 336 h, average, about two weeks after application, read-out: Herbicidal activity (% control), postemergence, monocots; for activity at 2241.7 g/ha: 2 lb./A.; for activity at 4483.4 g/ha: 4 lb./A.
Description: (§3) barnyardgrass (Echinochloa crusgalli) crabgrass (Digitaria spp.) nutsedge (Cyperus esculentus)
(§4) At 2 and 4 pounds per acre:
(§5) **Bermudagrass (Cynodon dactylon)
(§6) *downy brome (Bromus tectorum) foxtail (Setaria faberii)
(§7) Johnsongrass (Sorghum halepense) […]
(§8) quackgrass (Agropyron repens)
(§9) *ryegrass (Lolium perenne)
(§10) *wild oats (Avena factua)
(§11) *yellow millet (Panicum miliaceum)
as §1

[5] = Preemergence herbicidal activity (% control) against monocot weeds; type: in vivo; settings: pre-emergence, 336 h, average, about two weeks after application, read-out: Herbicidal activity (% control), preemergence, monocots; for activity at 2241.7 g/ha: 2 lb./A.; for activity at 4483.4 g/ha: 4 lb./A.
Description: as §3, §4, §5, §6, §7, §8, §9, §10, §11, §1

[6] = Preemergence herbicidal activity (% control) against dicot weeds; settings: pre-emergence, 336 h; for activity at 2241.7 g/ha: read-out: Herbicidal activity (% control), preemergence, dicots, 2 lb./A., average, about two weeks after application; for activity at 4483.4 g/ha: read-out: Herbicidal activity (% control), preemergence, dicots, 4 lb./A., average, about two weeks after application
[7] = system: corn; test: Crop tolerance (selective herbicidal activity), corn; type: in vivo
Protocol: as §1, §2

[8] = system: rice; test: Crop tolerance (selective herbicidal activity), rice; type: in vivo; settings: postemergence applications or applications on transplanted rice
Protocol: as §1, §2

Row | SMILES | Tolerance to soybeans [1] | Tolerance to peanuts ([2]; preemergence applications) | activity at 2241.7 g/ha [3] [%] | activity at 4483.4 g/ha [3] [%] | activity at 2241.7 g/ha [4] [%] | activity at 4483.4 g/ha [4] [%] | activity at 2241.7 g/ha [5] [%] | activity at 4483.4 g/ha [5] [%] | activity at 2241.7 g/ha [6] [%] | activity at 4483.4 g/ha [6] [%] | Tolerance to corn ([7]; postemergence applications) | Tolerance to peanuts ([2]; postemergence applications) | Tolerance to rice [8] | Tolerance to corn ([7]; preemergence applications)
1 | COC(=O)c1cc(Oc2ccc(C(F)(F)F)cc2Cl)ccc1[N+](=O)[O-] [Example 49, 2-chloro-α,α,α-trifluoro-p-tolyl-3-carbomethoxy-4-nitrophenyl ether] | Tolerance (significant tolerance (as shown by 50% or less kill of the test crop at levels of application which give more than 50% kill of many or all of the weeds of Example 73)) | Tolerance (significant tolerance (as shown by 50% or less kill of the test crop at levels of application which give more than 50% kill of many or all of the weeds of Example 73)) | 100 | 100 | 77 | 86 | 100 | 92 | 100 | 95 | Tolerance (significant tolerance (as shown by 50% or less kill of the test crop at levels of application which give more than 50% kill of many or all of the weeds of Example 73)) |  |  | 
2 | O=[N+]([O-])c1ccc(Oc2ccc(C(F)(F)F)cc2Cl)cc1Cl [Example 37, 2-chloro-α,α,α-trifluoro-p-tolyl-3-chloro-4-nitrophenyl ether] |  |  |  | 100 | 100 | 92 | 100 | 99 |  | 100 |  | Tolerance (significant tolerance (as shown by 50% or less kill of the test crop at levels of application which give more than 50% kill of many or all of the weeds of Example 73)) |  | 
3 | CCSC(=O)N(C(=O)SCC)c1cc(Oc2ccc(C(F)(F)F)cc2Cl)ccc1[N+](=O)[O-] [Example 46] |  |  | 4 | 30 | 0 | 0 | 34 | 0 | 87 | 20 |  |  |  | 
4 | O=[N+]([O-])c1ccc(Oc2ccc(C(F)(F)F)cc2Cl)cc1OCCO [Example 15, 2-chloro-α,α,α-trifluoro-p-tolyl-3-(2-hydroxyethoxy)-4-nitrophenyl ether] |  |  | 94 | 99 | 76 | 79 | 68 | 99 | 90 | 100 |  |  |  | 
5 | CCOCCOc1cc(Oc2ccc(C(F)(F)F)cc2Cl)ccc1[N+](=O)[O-] [Example 16] |  |  | 94 | 96 | 82 | 77 | 67 | 86 | 75 | 94 |  |  |  | 
6 | CN(CCO)c1cc(Oc2ccc(C(F)(F)F)cc2Cl)ccc1[N+](=O)[O-] [Example 43] |  |  | 80 | 47 | 61 | 2 | 99 | 0 | 100 | 48 |  |  |  | 
7 | CN(C)c1cc(Oc2ccc(C(F)(F)F)cc2Cl)ccc1[N+](=O)[O-] [Example 20, 2-chloro-α,α,α-trifluoro-p-tolyl-3-dimethylamino-4-nitrophenyl ether] |  |  | 97 | 88 | 80 | 78 | 80 | 88 | 93 | 99 |  |  | Tolerance (significant tolerance (as shown by 50% or less kill of the test crop at levels of application which give more than 50% kill of many or all of the weeds of Example 73)) | 
8 | CCCN(CCC)c1cc(Oc2ccc(C(F)(F)F)cc2Cl)ccc1[N+](=O)[O-] [Example 41] |  |  | 94 | 95 | 56 | 71 | 84 | 60 | 62 | 96 |  |  |  | 
9 | O=[N+]([O-])c1ccc(Oc2ccc(C(F)(F)F)cc2Cl)cc1OCC(O)CO (stereo not drawn) [Example 39, 2-chloro-α,α,α-trifluoro-p-tolyl-3-(2,3-dihydroxypropoxy)-4-nitrophenyl ether] |  |  | 100 | 98 | 61 | 64 | 77 | 65 | 80 | 99 |  |  |  | 
10 | CN(C)CCOc1cc(Oc2ccc(C(F)(F)F)cc2Cl)ccc1[N+](=O)[O-] [Example 17, 2-chloro-α,α,α-trifluoro-p-tolyl-3-(2-dimethylaminoethoxy)-4-nitrophenyl ether] |  |  | 98 | 89 | 39 | 45 | 20 | 51 | 31 | 84 |  |  |  | 
11 | CNC(=O)Nc1cc(Oc2ccc(C(F)(F)F)cc2Cl)ccc1[N+](=O)[O-] [Example 44] |  |  | 10 | 98 | 7 | 60 | 0 | 66 | 17 | 96 |  |  |  | 
12 | O=[N+]([O-])c1ccc(Oc2ccc(C(F)(F)F)cc2Cl)cc1OCC(F)(F)F [Example 11] | Tolerance (significant tolerance (as shown by 50% or less kill of the test crop at levels of application which give more than 50% kill of many or all of the weeds of Example 73)) |  |  | 99 | 100 | 82 | 88 | 81 | 99 | 98 |  |  | Tolerance (significant tolerance (as shown by 50% or less kill of the test crop at levels of application which give more than 50% kill of many or all of the weeds of Example 73)) | Tolerance (significant tolerance (as shown by 50% or less kill of the test crop at levels of application which give more than 50% kill of many or all of the weeds of Example 73))
13 | N#Cc1cc(Oc2ccc(C(F)(F)F)cc2Cl)ccc1[N+](=O)[O-] [Example 47, 2-Chloro-α,α,α-trifluoro-p-tolyl-3-cyano-4-nitrophenyle ther] |  |  | 84 | 72 | 24 | 11 | 80 | 61 |  | 40 |  |  |  | 
14 | Nc1cc(Oc2ccc(C(F)(F)F)cc2Cl)ccc1[N+](=O)[O-] [Example 27] |  |  | 100 | 100 | 99 | 82 | 74 | 76 | 90 | 98 |  |  |  | 
15 | CCOC(=O)COc1cc(Oc2ccc(C(F)(F)F)cc2Cl)ccc1[N+](=O)[O-] [Example 24] |  |  | 100 | 99 | 84 | 86 | 62 | 91 | 97 | 68 |  |  |  | 
16 | O=[N+]([O-])c1ccc(Oc2ccc(C(F)(F)F)cc2Cl)cc1N1CCOCC1 [Example 28, 2-chloro-α,α,α-trifluoro-p-tolyl-3-morpholino-4-nitrophenyl ether] |  |  | 100 | 99 | 73 | 73 | 79 | 74 |  | 95 |  |  |  | 
17 | CC(=O)C(C)Oc1cc(Oc2ccc(C(F)(F)F)cc2Cl)ccc1[N+](=O)[O-] (stereo not shown) [Example 32] |  |  |  | 100 | 100 | 86 | 81 | 86 |  | 100 |  |  |  | 
18 | O=[N+]([O-])c1ccc(Oc2ccc(C(F)(F)F)cc2Cl)cc1OCC1CO1 (stereo not shown) [Example 38] |  |  | 58 | 98 | 51 | 43 | 62 | 47 | 68 | 86 |  |  |  | 
